Data taken from patent publication US20230087994A1, “TARGETED BIFUNCTIONAL DEGRADERS” (YALE UNIVERSITY, priority 2019, published 2023).

Assays:
[1] = Tolerability of DNP-GN3 and DNP-OH3 in mice (body weight, AST, ALT); type: in vivo; conditions: all tested concentrations; FIGS. 93A-93C
Procedure: FIGS. 93A-93C illustrate that DNP-GN3 and DNP-OH3 are not toxic to mice at all tested concentrations. FIG. 93A: mouse body weight following treatment with DNP-GN3 or DNP-OH3. Statistical differences were analyzed by T test. FIG. 93B: levels of aspartate transaminase (AST) in treated mice. Dashed lines represent the normal range. FIG. 93C: levels of alanine transaminase (ALT) in treated mice. Dashed lines represent the normal range.

HepG2 cells [2] = test: DNP-AF3-mediated endocytosis of fluorescently labeled α-DNP antibody by HepG2 cells (flow cytometry); type: cell-based, human; conditions: 40 nM DNP-AF3, 100 nM antibody; ASF 2.07 μM; AF and GalNAc 1.25 mM; FIG. 105
Procedure: The intracellular fluorescence of cells that were incubated at 37° C. with both fluorescently labeled α-DNP antibody and DNP-AF3 for a given amount of time was examined. Cells were then washed, removed from the plate with trypsin, and subjected to flow cytometry. Trypsin treatment is expected to cleave ASGPR and surface-bound α-DNP antibody from cells, and therefore the cellular fluorescence observed in these assays is expected to arise only from internalized antibodies.
It was then determined if reagents which inhibit ternary complex formation inhibit endocytosis mediated by DNP-AF3. In order to account for non-specific antibody association with cells, the mean fluorescence intensity of an aliquot of cells which had been treated with α-DNP antibody but not DNP-AF3 was subtracted from each reading. […] In the presence of 2.38 μM (0.1 mg/mL) ASOR, the cell population fluorescence was decreased to 4.66e5 (FIG. 105); at this ASOR concentration, ternary complex formation is decreased by approximately 70%. Because ternary complex is not inhibited completely at this concentration of ASOR, it is expected that productive endocytic events are still taking place.

[3] = system: ASGPR on the surface of immortalized human hepatocyte HepG2 cells; test: DNP-GN3-mediated ternary complex formation: association of fluorescently labeled α-DNP antibody with HepG2 cells in suspension; type: cell-based; conditions: competition; FIG. 86B-86C; read-out: IC50, decrease of DNP-GN3-mediated cellular fluorescence
Excerpt: It was investigated whether DNP-GN3 could mediate the formation of a ternary complex between a fluorescently labeled α-DNP antibody and ASGPR on the surface of immortalized human hepatocyte HepG2 cells in suspension. […] The observed bell-shaped response to DNP-GN3 concentration is consistent with the prozone effect commonly observed in systems wherein a ternary complex is formed.

α-DNP antibody [4] = test: Depletion of α-DNP antibody from serum in mice (ELISA); type: in vivo; conditions: negative control compound; FIG. 95
Procedure: FIG. 94 illustrates that serum levels of α-DNP antibody decrease more rapidly following repeated treatment with DNP-GN3. Serum antibody levels were measured using an ELISA assay. Each experimental group contained three mice. Statistical differences in experiments involving in vivo depletion of α-DNP antibody were assessed by repeated measures two-way ANOVA with Tukey's tests for post-hoc comparison of simple effects between each of the treatment groups and PBS.
Single doses of DNP-GN3 were also found to be efficacious at mediating α-DNP antibody depletion, albeit less effectively than daily dosing (FIG. 96). […] Therefore, it was concluded that DNP-GN3 is able to mediate the depletion of a monoclonal antibody from serum, and functions across a wide range of target protein concentrations and dosing regimens.
DNP-GN3 was also found to be efficacious in depleting polyclonal α-DNP antibody from serum collected from mice immunized with DNP-keyhole limpet haemocyanin (KLH) (FIG. 97). […] Thus, the small molecule DNP-GN3 is not restricted in function to only monoclonal mouse antibodies, but is also effective at removing polyclonal α-DNP antibodies from circulation in mice.

α-DNP antibody [5] = test: as above; type: in vivo; conditions: i.p.; FIG. 79A
[6] = system: ASGPR on the surface of HepG2 cells; test: DNP-AF3-mediated ternary complex formation: α-DNP antibody association with HepG2 cells (flow cytometry); type: cell-based, human; conditions: 40 nM DNP-AF3, 100 nM α-DNP antibody; FIG. 99; read-out: IC50, inhibition of DNP-AF3-mediated ternary complex formation
Procedure: DNP-AF3 utilizes trivalent display of a higher affinity ASGPR ligand to engage the receptor. First, the effect of DNP-AF3 concentration on α-DNP antibody association with cells was determined (FIG. 98). In these experiments, a constant amount of α-DNP antibody and cells was incubated with various concentrations of DNP-AF3. The mean fluorescence intensity of the cell population was measured using flow cytometry. In order to account for background cellular fluorescence and non-DNP-AF3 mediated antibody association with cells, the mean fluorescence intensity of a sample of cells which had been treated with α-DNP antibody but not DNP-AF3 was subtracted from each data point.
Next, whether increasing concentrations of a competitive binder of the α-DNP antibody inhibits ternary complex formation was investigated. […] However, different preparations of the HepG2 cells and/or compound gave varying mean fluorescence intensity for the cell population between different independent experimental replicates. Therefore, for competition studies, inhibition of ternary complex formation was reported rather than mean fluorescence intensity of the cell population. 100% ternary complex formation is corrected to the fluorescence of a cell population treated with both 40 nM DNP-AF3 and 100 nM α-DNP antibody, while 0% ternary complex formation is corrected to a mixture of cells and α-DNP antibody without DNP-AF3.

HepG2 cells [7] = test: DNP-GN3-mediated endocytosis of fluorescently labeled α-DNP antibody by adherent HepG2 cells; type: cell-based, human; conditions: competitive binders at high concentrations; FIG. 88

## O=C(CCOCC(COCCC(=O)NCCOCCOCCO)(COCCC(=O)NCCOCCOCCO)NC(=O)CNC(=O)COCCOCCOCCNc1ccc([N+](=O)[O-])cc1[N+](=O)[O-])NCCOCCOCCO [DNP-OH3, reference compound]
[1]
  toxicity to mice: not toxic
HepG2 cells [2]
  effect on DNP-AF3-mediated α-DNP antibody endocytosis: decreased to near-background levels
[3]
  IC50: 36 nM
α-DNP antibody [4]
  antibody depletion from serum: No accelerated antibody depletion
α-DNP antibody [5]
  degradation of injected anti-DNP IgG antibodies in mouse serum: did not show such effect
[6]
  IC50: 40.6 nM
HepG2 cells [7]
  effect on DNP-GN3-mediated α-DNP antibody endocytosis: significantly decreased
